Patent publication US20110044991A1, “METHODS AND COMPOSITIONS FOR TREATING LYMPHOMA AND MYELOMA” (IRM LLC, priority 2006, published 2011)

Assays:
[1] = test system: Eμ-Myc lymphoma cells; assay: Luciferase assay and light microscopy of luciferased lymphoma cells on stromal layer; assay type: cell-based, mouse
Protocol: For Shh pathway inhibition on stroma, 6200 stroma cells were seeded per 96-well. After 24 hours 20,000 luciferased lymphoma cells were seeded on the stroma cells and 2 hours later compound or DMSO was added. Luciferase assay was performed with Bright-glow reagent as described. To generate cells overexpressing Hh pathway members, lymphoma cells were infected with Smo, Smo 535, Smo 562, Gli1 and Fused-pMSCV IRES GFP constructs and then sorted for GFP positive cells.
In order to investigate whether the Hh signalling pathway does indeed contribute to the survival and proliferation of lymphoma cells growing on an intact stromal layer, lymphoma cells were luciferased using a retrovirus expressing a puromycin/Luc fusion cassette. 2×10E4 lymphoma cells constitutively expressing luciferase were added to each 96-well containing a stromal layer (not expressing luciferase) isolated from Cdkn2a^−/− mice. A total of 34 individual Eμ-Myc-lymphomas and 8 Cdkn2a-lymphomas were tested. A luciferase assay was performed as a readout for cell viability and proliferation and results were also documented by light microscopy.

[2] = test system: lymphoma cells (mixed, B-cell lymphoma, plasmacytoma, plasmoblastoma); assay: Cytokine stimulation of lymphoma cells off stroma, Alamar Blue assay; assay type: cell-based, mouse; conditions: 2 days after stroma removal; cytokines 0-50 ng/ml; IL-6: plasmacytomas and mixed, IL-7: B-cell and mixed lymphomas, not plasmoblastomas
Protocol: Luminescence was measured after 0 h, 24 h and 48 h after seeding of 2×10E4 luciferased lymphoma cells on the stroma cells; and F: RT-PCR analysis of transcripts from Hh pathway members and targets in spleen lymphocytes and different lymphoma cell lines.
Cell culture experiments: Lymphoma cells were infected with a retrovirus containing a pMSCV IRES puro-luc sequence and selected for 7 days with puromycin on puromycin-resistant Cdkn2a−/− stroma. […] Both were dissolved as x 1,000 stocks in DMSO. SCF was obtained from RDI, and all other cytokines were obtained from R&D systems. 5E1 anti-ShhN monoclonal antibody was obtained from the developmental hybridoma bank and was used at a concentration of 10 μg/ml. For cytokine stimulation and Shh inhibition in supernatant lymphoma cells were seeded into 96-well plates at a density of 20,000 cells per well and mitochondrial activity of viable cells was measured with an Alamar Blue Assay as described.

Cc1nn(-c2ccccc2)c(C)c1/C=N/N1CCN(Cc2ccccc2)CC1 [SANT-1] was tested, and the “luciferase activity (viable lymphoma cells)” value ([1]; Myc-Ly6, 48 hours, 0, 0.5, 1, 5 and 10 μM) was “reduced in a dose dependant manner” and the IC50 ([1]; most responsive lymphomas, 48 h on stromal layer, read-out: IC50 (concentration needed for 50% of maximal inhibition)) was 1000 to 3000 nM.

In the case of GM-CSF: cytokine / growth factor, the “number of viable lymphoma cells / survival after cytokine stimulation” value [2] is reported as “no effect on lymphocyte growth”.

IL-6: cytokine / growth factor was tested, and the “number of viable lymphoma cells / survival after cytokine stimulation” value [2] was “enhance survival”.

For “SCF: cytokine / growth factor, obtained from RDI”, the “number of viable lymphoma cells / survival after cytokine stimulation” value [2] was “no effect on lymphocyte growth”.

B1: IL-11: cytokine / growth factor (protein, UniProt P20809 22-199, looked up)
Interleukin-11: PGPPPGPPRVSPDPRAELDSTVLLTRSLLADTRQLAAQLRDKFPADGDHNLDSLPTLAMSAGALGALQLPGVLTRLRADLLSYLRHVQWLRRAGGSSLKTLEPELGTLQARLDRLLRRLQLLMSRLALPQPPPDPPAPPLAPPSSAWGGIRAAHAILGGLHLTLDWAVRGLLLLKTRL
B1 was tested, and the “number of viable lymphoma cells / survival after cytokine stimulation” value [2] was “no effect on lymphocyte growth”.

B2: IL-7: cytokine / growth factor (protein, UniProt P13232 26-177, looked up)
Interleukin-7: DCDIEGKDGKQYESVLMVSIDQLLDSMKEIGSNCLNNEFNFFKRHICDANKEGMFLFRAARKLRQFLKMNSTGDFDLHLLKVSEGTTILLNCTGQVKGRKPAALGEAQPTKSLEENKSLKEQKKLNDLCFLKRLLQEIKTCWNKILMGTKEH
With B2 the “number of viable lymphoma cells / survival after cytokine stimulation” value [2] was “enhance survival”.

B3: Wnt3a: growth factor (protein, UniProt P56704 19-352, looked up)
Protein Wnt-3a: SYPIWWSLAVGPQYSSLGSQPILCASIPGLVPKQLRFCRNYVEIMPSVAEGIKIGIQECQHQFRGRRWNCTTVHDSLAIFGPVLDKATRESAFVHAIASAGVAFAVTRSCAEGTAAICGCSSRHQGSPGKGWKWGGCSEDIEFGGMVSREFADARENRPDARSAMNRHNNEAGRQAIASHMHLKCKCHGLSGSCEVKTCWWSQPDFRAIGDFLKDKYDSASEMVVEKHRESRGWVETLRPRYTYFKVPTERDLVYYEASPNFCEPNPETGSFGTRDRTCNVSSHGIDGCDLLCCGRGHNARAERRREKCRCVFHWCCYVSCQECTRVYDVHTCK
In the case of B3, the “number of viable lymphoma cells / survival after cytokine stimulation” value [2] is reported as “no effect on lymphocyte growth”.
